Measured values reported in patent US20230398130A1, “METHODS AND COMPOSITIONS FOR DIFFERENTIATING STEM CELLS” (Massachusetts Institute of Technology, priority 2020, published 2023).

Columns and labels:
ISC-enriched organoids [1] = assay: Primary screen, 384-well 2.5-D organoid differentiation (ENR+CD, 6 days): carbachol-induced lysozyme secretion (LYZ.S); format: cell-based, murine; conditions: primary screen; for Dose.FC.LYZ.S: FC vs plate median; for Z.LYZ.S: standard z score; for SSMD.LYZ.S: strictly standardized mean difference
Source text: (§1) High-throughput screening.

ISC-enriched organoids [2] = assay: Primary screen, 384-well 2.5-D organoid differentiation (ENR+CD, 6 days, Target Selective Inhibitor Library, vs whole-plate median): ATP (CellTiter-Glo 3D, CTG); conditions: for Dose.FC.CTG: FC vs plate median; for SSMD.CTG: strictly standardized mean difference
ISC-enriched organoids [3] = assay: Primary screen, 384-well 2.5-D organoid differentiation (ENR+CD, 6 days): basal lysozyme secretion (LYZ.NS); format: cell-based, murine; conditions: for Dose.FC.LYZ.NS: FC vs plate median; for SSMD.LYZ.NS: strictly standardized mean difference
Source text: as §1

[4] = primary screen, dose 0.08 uM, ENR+CD 6 days
[5] = primary screen, dose 0.08 uM, standard z score of FC
[6] = primary screen, dose 0.40 uM, ENR+CD 6 days
[7] = primary screen, dose 0.40 uM, standard z score of FC
[8] = primary screen, dose 2.00 uM, ENR+CD 6 days
[9] = primary screen, dose 2.00 uM, standard z score of FC
[10] = primary screen, dose 10.00 uM, ENR+CD 6 days
[11] = primary screen, dose 10.00 uM, standard z score of FC
[12] = Dose 0.08 uM, standard z score of FC
[13] = Dose 0.40 uM, standard z score of FC
[14] = Dose 2.00 uM, standard z score of FC
[15] = Dose 10.00 uM, standard z score of FC
[16] = 1st of the 4 dose lines of the treatment (dose not given)
[17] = 2nd of the 4 dose lines of the treatment (dose not given)
[18] = 3rd of the 4 dose lines of the treatment (dose not given)
[19] = 4th of the 4 dose lines of the treatment (dose not given)
[20] = Dose 0.08 uM, primary screen, standard z score
[21] = Dose 0.40 uM, primary screen, standard z score
[22] = Dose 2.00 uM, primary screen, standard z score
[23] = Dose 10.00 uM, primary screen, standard z score
[24] = primary screen, 1st of the 4 dose lines of the treatment (dose not given)
[25] = primary screen, 2nd of the 4 dose lines of the treatment (dose not given)
[26] = primary screen, 3rd of the 4 dose lines of the treatment (dose not given)
[27] = primary screen, 4th of the 4 dose lines of the treatment (dose not given)

Compound: BAM7
- Dose.FC.LYZ.S (ISC-enriched organoids [1]; dose 0.08 uM, ENR+CD 6 days): 0.079 log 2 fold change
- Dose.FC.LYZ.S (ISC-enriched organoids [1]; dose 0.40 uM, ENR+CD 6 days): 0.039 log 2 fold change
- Dose.FC.LYZ.S (ISC-enriched organoids [1]; dose 2.00 uM, ENR+CD 6 days): 0.019 log 2 fold change
- Dose.FC.LYZ.S (ISC-enriched organoids [1]; dose 10.00 uM, ENR+CD 6 days): −0.020 log 2 fold change
- Dose.FC.CTG (ISC-enriched organoids [2]; [4]): 0.209 log 2 fold change
- Z.CTG (ISC-enriched organoids [2]; [5]): 0.498
- Dose.FC.CTG (ISC-enriched organoids [2]; [6]): −0.010 log 2 fold change
- Z.CTG (ISC-enriched organoids [2]; [7]): −0.024
- Dose.FC.CTG (ISC-enriched organoids [2]; [8]): −0.156 log 2 fold change
- Z.CTG (ISC-enriched organoids [2]; [9]): −0.373
- Dose.FC.CTG (ISC-enriched organoids [2]; [10]): −0.114 log 2 fold change
- Z.CTG (ISC-enriched organoids [2]; [11]): −0.272
- Dose.FC.LYZ.NS (ISC-enriched organoids [3]; [4]): 0.045 log 2 fold change
- Z.LYZ.NS (ISC-enriched organoids [3]; [5]): 0.391
- Dose.FC.LYZ.NS (ISC-enriched organoids [3]; [6]): −0.009 log 2 fold change
- Z.LYZ.NS (ISC-enriched organoids [3]; [7]): −0.082
- Dose.FC.LYZ.NS (ISC-enriched organoids [3]; [8]): 0.057 log 2 fold change
- Z.LYZ.NS (ISC-enriched organoids [3]; [9]): 0.498
- Dose.FC.LYZ.NS (ISC-enriched organoids [3]; [10]): −0.007 log 2 fold change
- Z.LYZ.NS (ISC-enriched organoids [3]; [11]): −0.063

Compound: CCNC(=O)c1noc(-c2cc(C(C)C)c(O)cc2O)c1-c1ccc(CN2CCOCC2)cc1 [AUY922 (NVP-AUY922)]
- Dose.FC.LYZ.S (ISC-enriched organoids [1]; dose 0.08 uM, ENR+CD 6 days): −0.209 log 2 fold change
- Dose.FC.LYZ.S (ISC-enriched organoids [1]; dose 0.40 uM, ENR+CD 6 days): −0.184 log 2 fold change
- Dose.FC.LYZ.S (ISC-enriched organoids [1]; dose 2.00 uM, ENR+CD 6 days): −0.216 log 2 fold change
- Dose.FC.LYZ.S (ISC-enriched organoids [1]; dose 10.00 uM, ENR+CD 6 days): −0.214 log 2 fold change
- Dose.FC.CTG (ISC-enriched organoids [2]; [4]): −1.185 log 2 fold change
- Z.CTG (ISC-enriched organoids [2]; [5]): −2.830
- Dose.FC.CTG (ISC-enriched organoids [2]; [6]): −1.343 log 2 fold change
- Z.CTG (ISC-enriched organoids [2]; [7]): −3.208
- Dose.FC.CTG (ISC-enriched organoids [2]; [8]): −1.137 log 2 fold change
- Z.CTG (ISC-enriched organoids [2]; [9]): −2.715
- Dose.FC.CTG (ISC-enriched organoids [2]; [10]): −1.270 log 2 fold change
- Z.CTG (ISC-enriched organoids [2]; [11]): −3.032
- Dose.FC.LYZ.NS (ISC-enriched organoids [3]; [4]): −0.144 log 2 fold change
- Z.LYZ.NS (ISC-enriched organoids [3]; [5]): −1.251
- Dose.FC.LYZ.NS (ISC-enriched organoids [3]; [6]): −0.154 log 2 fold change
- Z.LYZ.NS (ISC-enriched organoids [3]; [7]): −1.343
- Dose.FC.LYZ.NS (ISC-enriched organoids [3]; [8]): −0.138 log 2 fold change
- Z.LYZ.NS (ISC-enriched organoids [3]; [9]): −1.200
- Dose.FC.LYZ.NS (ISC-enriched organoids [3]; [10]): −0.153 log 2 fold change
- Z.LYZ.NS (ISC-enriched organoids [3]; [11]): −1.330

Compound: CC(C)(C)n1nc(-c2ccc(Cl)cc2)c2c(N)ncnc21 [PP2]
- Dose.FC.LYZ.S (ISC-enriched organoids [1]; Dose 0.08 uM): 0.058 log 2 fold change
- Dose.FC.LYZ.S (ISC-enriched organoids [1]; Dose 0.40 uM): 0.145 log 2 fold change
- Dose.FC.LYZ.S (ISC-enriched organoids [1]; Dose 2.00 uM): 0.113 log 2 fold change
- Dose.FC.LYZ.S (ISC-enriched organoids [1]; Dose 10.00 uM): 0.027 log 2 fold change
- Dose.FC.CTG (ISC-enriched organoids [2]; Dose 0.08 uM, primary screen): −0.693 log 2 fold change
- Z.CTG (ISC-enriched organoids [2]; [12]): −1.655
- Dose.FC.CTG (ISC-enriched organoids [2]; Dose 0.40 uM, primary screen): 0.130 log 2 fold change
- Z.CTG (ISC-enriched organoids [2]; [13]): 0.312
- Dose.FC.CTG (ISC-enriched organoids [2]; Dose 2.00 uM, primary screen): −0.382 log 2 fold change
- Z.CTG (ISC-enriched organoids [2]; [14]): −0.913
- Dose.FC.CTG (ISC-enriched organoids [2]; Dose 10.00 uM, primary screen): −0.246 log 2 fold change
- Z.CTG (ISC-enriched organoids [2]; [15]): −0.587
- Dose.FC.LYZ.NS (ISC-enriched organoids [3]; Dose 0.08 uM, primary screen): 0.033 log 2 fold change
- Z.LYZ.NS (ISC-enriched organoids [3]; [12]): 0.285
- Dose.FC.LYZ.NS (ISC-enriched organoids [3]; Dose 0.40 uM, primary screen): 0.012 log 2 fold change
- Z.LYZ.NS (ISC-enriched organoids [3]; [13]): 0.104
- Dose.FC.LYZ.NS (ISC-enriched organoids [3]; Dose 2.00 uM, primary screen): 0.270 log 2 fold change
- Z.LYZ.NS (ISC-enriched organoids [3]; [14]): 2.354
- Dose.FC.LYZ.NS (ISC-enriched organoids [3]; Dose 10.00 uM, primary screen): −0.027 log 2 fold change
- Z.LYZ.NS (ISC-enriched organoids [3]; [15]): −0.235

Compound: Oc1ccc2ccccc2c1SSc1c(O)ccc2ccccc12 [IPA-3]
- Dose.FC.LYZ.S (ISC-enriched organoids [1]; Dose 0.08 uM): 0.064 log 2 fold change
- Dose.FC.LYZ.S (ISC-enriched organoids [1]; Dose 0.40 uM): −0.031 log 2 fold change
- Dose.FC.LYZ.S (ISC-enriched organoids [1]; Dose 2.00 uM): 0.067 log 2 fold change
- Dose.FC.LYZ.S (ISC-enriched organoids [1]; Dose 10.00 uM): −0.054 log 2 fold change
- Z.LYZ.S (ISC-enriched organoids [1]; [16]): 0.413
- Z.LYZ.S (ISC-enriched organoids [1]; [17]): −0.202
- Z.LYZ.S (ISC-enriched organoids [1]; [18]): 0.431
- Z.LYZ.S (ISC-enriched organoids [1]; [19]): −0.347
- SSMD.LYZ.S (ISC-enriched organoids [1]; [16]): 0.356
- SSMD.LYZ.S (ISC-enriched organoids [1]; [17]): −0.184
- SSMD.LYZ.S (ISC-enriched organoids [1]; [18]): 0.324
- SSMD.LYZ.S (ISC-enriched organoids [1]; [19]): −0.305
- Dose.FC.CTG (ISC-enriched organoids [2]; Dose 0.08 uM, primary screen): 0.219 log 2 fold change
- Z.CTG (ISC-enriched organoids [2]; [20]): 0.524
- Dose.FC.CTG (ISC-enriched organoids [2]; Dose 0.40 uM, primary screen): −0.332 log 2 fold change
- Z.CTG (ISC-enriched organoids [2]; [21]): −0.793
- Dose.FC.CTG (ISC-enriched organoids [2]; Dose 2.00 uM, primary screen): −0.084 log 2 fold change
- Z.CTG (ISC-enriched organoids [2]; [22]): −0.202
- Dose.FC.CTG (ISC-enriched organoids [2]; Dose 10.00 uM, primary screen): −0.054 log 2 fold change
- Z.CTG (ISC-enriched organoids [2]; [23]): −0.128
- SSMD.CTG (ISC-enriched organoids [2]; [24]): 0.818
- SSMD.CTG (ISC-enriched organoids [2]; [25]): −0.408
- SSMD.CTG (ISC-enriched organoids [2]; [26]): −0.316
- SSMD.CTG (ISC-enriched organoids [2]; [27]): −0.172
- Dose.FC.LYZ.NS (ISC-enriched organoids [3]; Dose 0.08 uM, primary screen): 0.004 log 2 fold change
- Z.LYZ.NS (ISC-enriched organoids [3]; [20]): 0.031
- Dose.FC.LYZ.NS (ISC-enriched organoids [3]; Dose 0.40 uM, primary screen): 0.003 log 2 fold change
- Z.LYZ.NS (ISC-enriched organoids [3]; [21]): 0.028
- Dose.FC.LYZ.NS (ISC-enriched organoids [3]; Dose 2.00 uM, primary screen): −0.001 log 2 fold change
- Z.LYZ.NS (ISC-enriched organoids [3]; [22]): −0.010
- Dose.FC.LYZ.NS (ISC-enriched organoids [3]; Dose 10.00 uM, primary screen): −0.021 log 2 fold change
- Z.LYZ.NS (ISC-enriched organoids [3]; [23]): −0.186
- SSMD.LYZ.NS (ISC-enriched organoids [3]; [24]): 0.027
- SSMD.LYZ.NS (ISC-enriched organoids [3]; [25]): 0.026
- SSMD.LYZ.NS (ISC-enriched organoids [3]; [26]): −0.008
- SSMD.LYZ.NS (ISC-enriched organoids [3]; [27]): −0.175
